# Laboratory results published in the PolyMetriX glass transition set.
# ± gives the standard deviation of the reports.
row,SMILES,glass transition temperature [°C]
1,*c1ccc(Oc2ccc(C(c3ccc(Oc4ccc(N5C(=O)c6ccc(Oc7ccc(C8(c9ccc(Oc%10ccc%11c(c%10)C(=O)N(*)C%11=O)cc9)CCC(C(C)(C)C)CC8)cc7)cc6C5=O)cc4)cc3)(C(F)(F)F)C(F)(F)F)cc2)cc1 (repeat unit),227.00
2,*CCCCCCOC(=O)C(CCCCCOc1ccc(/N=N/c2ccncc2)cc1)C(=O)OCCCCCCOc1ccc(-c2ccc(O*)cc2)cc1 (repeat unit),53.60
3,*[O][Zn][O]C(=O)c1ccccc1C(=O)OCCCCCOC(=O)NCCCCCCNC(=O)OCCCCCOC(=O)c1ccccc1C(*)=O (repeat unit),-4.30
4,*c1ccc(Oc2cc3ccccc3cc2Oc2ccc(-n3c(=O)c4cc5c(=O)n(*)c(=O)c5cc4c3=O)cc2)cc1 (repeat unit),316.00
5,*c1ccc(Oc2ccc(C(=O)c3ccc(Oc4ccc(C(=O)c5ccc(Oc6ccc(-c7nc(-c8ccccc8)[nH]c7*)cc6)cc5)cc4)cc3)cc2)cc1 (repeat unit),230.00
6,*c1ccc(-c2ccc(-c3c(-c4ccccc4)nc4ccc(-c5ccc6nc(-c7ccccc7)c(*)c(-c7ccccc7)c6c5)cc4c3-c3ccccc3)cc2)cc1 (repeat unit),405.00
7,*c1ccc(OC(=O)c2ccc(C(=O)Oc3ccc(C4(*)OCc5ccccc54)cc3)cc2)cc1 (repeat unit),312.00
8,*/C=C/c1ccc(N(c2ccc(/C=C/c3ccc4c5ccc(*)cc5n(CC(CC)CCCC)c4c3)cc2)c2ccc(OCC(CC)CCCC)cc2)cc1 (repeat unit),132.00
9,*c1ccc(-n2ccc(-c3ccc(-c4ccn(*)n4)cc3)n2)cc1 (repeat unit),75.00
10,*CC(*)(C)C(=O)OCC1CCCO1 (repeat unit),105.00
11,*c1ccc(N2C(=O)c3ccc(-c4cccc5c4C(=O)N(*)C5=O)cc3C2=O)cc1 (repeat unit),405.00 ± 36
12,*Nc1ccc(-c2ccc(NC(=O)c3cc(NC(=O)c4ccncc4)cc(C(*)=O)c3)cc2)cc1 (repeat unit),339.00
13,*CC(CCCCCCOc1ccc(/N=N/c2ccc(C)cc2)cc1)COC(=O)CCCCC(=O)O* (repeat unit),29.00
14,*c1ccc(Oc2cccc(N3C(=O)c4ccc(Oc5cc6ccccc6cc5Oc5ccc6c(c5)C(=O)N(*)C6=O)cc4C3=O)c2)cc1 (repeat unit),226.00
15,*CC(*)(C)C(=O)OC1(C)CCOC(=O)C1 (repeat unit),110.00
16,*CC(CCCCCCCCCCCC)COC(=O)NC(=O)c1ccc(C(=O)NC(=O)O*)cc1 (repeat unit),75.00
17,*CCCCCCCCCCOC(=O)c1ccc2cc(C(=O)O*)ccc2c1 (repeat unit),50.50
18,*c1ccc(Oc2ccc(NC(=O)c3ccc4c(c3)C(=O)N(c3ccc(Sc5ccc(N6C(=O)c7ccc(C(=O)Nc8ccc(Oc9ccc(C%10(*)NC(=O)c%11ccccc%11%10)cc9)cc8)cc7C6=O)cc5)cc3)C4=O)cc2)cc1 (repeat unit),298.00
19,*c1c(C)cc(-c2cc(C)c(N3C(=O)c4cccc(Oc5c(C)cc(Cc6cc(C)c(Oc7cccc8c7C(=O)N(*)C8=O)c(C)c6)cc5C)c4C3=O)c(C)c2)cc1C (repeat unit),276.00
20,*/C=C/c1sc(-c2ccc(-c3ccc(-c4ccc(-c5sc(/C=C/C6=CC(=C(C#N)C#N)C=C(*)O6)c(CCCCCC)c5CCCCCC)s4)s3)s2)c(CCCCCC)c1CCCCCC (repeat unit),134.00
21,*c1ccc(Oc2ccc(C3(c4ccc(Oc5ccc(N6C(=O)c7ccc(Oc8ccc(C9(c%10ccc(Oc%11ccc%12c(c%11)C(=O)N(*)C%12=O)cc%10)CCC(C(C)(C)C)CC9)cc8)cc7C6=O)cc5)cc4)C4CC5CC(C4)CC3C5)cc2)cc1 (repeat unit),266.00
22,*Oc1ccc(-c2ccc(Oc3cccc(*)n3)cc2)cc1 (repeat unit),119.00

row,SMILES,glass transition temperature [°C]
1,*c1ccc(Oc2cccc(NC(=O)c3cc(C(=O)Nc4cccc(Oc5ccc(-c6nnc(*)o6)cc5)c4)cc(N4C(=O)c5ccccc5C4=O)c3)c2)cc1 (repeat unit),245.00
2,*Oc1ccc(C(=O)Nc2ccc(C(c3ccc(NC(=O)c4ccc(OC(=O)c5ccc(C(*)=O)cc5)cc4)cc3)(C(F)(F)F)C(F)(F)F)cc2)cc1 (repeat unit),266.00
3,*Nc1c(C)c(C)c(C(=O)c2ccc(NC(=O)c3ccc(C(*)=O)cc3)cc2)c(C)c1C (repeat unit),366.00
4,*c1ccc(Oc2cccc(Oc3ccc(N4C(=O)CC(=O)N(*)C4=S)cc3)c2)cc1 (repeat unit),145.00
5,*CC(CC)(CO)CO* (repeat unit),331.90
6,*CC(*)C(C)=O (repeat unit),115.00
7,*C(=O)Nc1ccc(Oc2ccccc2-c2ccccc2Oc2ccc(NC(=O)c3ccc4c(c3)C(=O)N(c3ccc(Oc5ccc(N6C(=O)c7ccc(*)cc7C6=O)cc5)cc3)C4=O)cc2)cc1 (repeat unit),239.00
8,*c1ccc(Oc2ccc(P(=O)(c3ccccc3)c3ccc(Oc4ccc(-c5cc(*)[nH]n5)cc4)cc3)cc2)cc1 (repeat unit),296.00
9,*CC(C)C(C)COC(=O)c1ccc(C(=O)O*)cc1 (repeat unit),37.50
10,*Oc1ccc(OC(=O)c2cc(OCCCCCCOCC3CCCN3c3ccc([N+](=O)[O-])cc3)c(C(*)=O)cc2OCCCCCCOCC2CCCN2c2ccc([N+](=O)[O-])cc2)cc1 (repeat unit),56.00
11,*Oc1ccc(S(=O)(=O)c2ccc(Oc3ccc(C(=O)c4ccc(-c5ccc(C(=O)c6ccc(*)cc6)cc5)cc4)cc3)cc2)cc1 (repeat unit),207.00
12,*CC(c1ccccc1)C1C(=O)N(C)C(=O)C1* (repeat unit),205.00
13,*Oc1c(C)cc(*)cc1C(C)CCCCCC (repeat unit),54.00
14,*O[Si](C)(C)O[Si](C)(C)O[Si](C)(C)O[Si](C)(C)OC(C)CCC(*)C (repeat unit),-96.00
15,*CC(*)(CC(=O)OC)C(=O)OC (repeat unit),95.00
16,*CCN(CCOC(=O)c1ccc(C(=O)O*)c(OC)c1)c1ccc(/N=N/c2ccc(-c3nc4ccc([N+](=O)[O-])cc4n3CC)cc2)cc1 (repeat unit),146.00
17,*c1ccc(Oc2ccc(C(C)(C)c3ccc(Oc4ccc(-c5nc(-c6ccccn6)nnc5*)cc4)cc3)cc2)cc1 (repeat unit),220.00
18,*c1ccc2c(c1)C(=O)N(c1ccc(Oc3ccc(C(=O)c4cccc(C(=O)c5ccc(Oc6ccc(N7C(=O)c8ccc(C(*)(C(F)(F)F)C(F)(F)F)cc8C7=O)cc6)cc5)n4)cc3)cc1)C2=O (repeat unit),226.90
19,*c1cccc(N2C(=O)c3cccc(Oc4ccc(Oc5ccc(Oc6cccc7c6C(=O)N(*)C7=O)cc5)cc4)c3C2=O)c1 (repeat unit),238.00
20,*c1cccc(N2C(=O)c3ccc(Oc4ccc5ccc(Oc6ccc7c(c6)C(=O)N(*)C7=O)cc5c4)cc3C2=O)c1 (repeat unit),254.00
21,*c1cc(-c2sc(-c3cc(CCCC)c(*)s3)cc2CCCC)c2cccccc1-2 (repeat unit),124.00
